Assay results reported in US20230123334A1, “AMINO LIPID COMPOUND, PREPARATION METHOD THEREFOR, AND APPLICATION THEREOF” (SHENZHEN SHENXIN BIOTECHNOLOGY CO., LTD., priority 2020, published 2023).

Test system: HEK293 cells
Assay: Preliminary screening as DNA vectors, GFP transfection of HEK293 cells
Format: cell-based
Conditions: amino lipid/DOPE liposome with 75 ng plasmid DNA (psin-EGFP-IRES-Puro); number of GFP-expressing cells divided by total nuclei (Hoechst)
Method: Cell line: HEK293 cells (ATCC CRL-1573™)
Medium: DMEM supplemented with 10% fetal bovine serum (Invitrogen)
Mode of screening: cell transfection on 96-well plates
Detection (readout): percentage of the number of GFP fluorescent cells relative to the total number of cells (the total number of cells was measured using nucleus dye Hoechst—see FIG. 2). Lipofectamine2000 (Invitrogen) was used as positive control, according to the manufacturer's instructions.
Method: an 8-channel pipette was used for sample addition. The contents shown were for a single well of a 96-well flat plate.
1. The compound (0.01 mmol) prepared in Example 1 was dissolved in 1 mL of anhydrous ethanol. After ultrasonically dissolved, 10 μL of the resultant amino lipid solution in ethanol was taken and mixed with 5 μL of DOPE solution in ethanol (0.01 m), and then to the obtained mixture was added 35 μL of 0.2M sodium acetate buffer (pH 5.6), and 50 μL of liposome solution was prepared by vortex at a constant rotating speed for 30 s. 4 μL was taken from the 50 μL liposome solution and added to 46 μL of 0.02M sodium acetate buffer (pH 5.6), and the final liposome solution was formed by vortex at a constant rotating speed for 30 s. 5 μL was taken from the final liposome solution and mixed with 75 ng plasmid DNA (psin-EGFP-IRES-Puro, Clontech) dissolved in 5 μL of 0.02 M sodium acetate buffer, and was allowed to stay at room temperature for 30 min to form a lipid/DNA transfection complex.
2. 10 μL of the lipid/DNA transfection complex was incubated at room temperature for 30 min, followed by addition of 90 μL of fresh resuspended cells (3-5×10^4 cells) and mixing with a pipette. 100 μL of cells+lipid/DNA complex was transferred to separate wells of a 96-well culture plate immediately, and placed in an incubator containing 5% CO2 at 37° C.
3. Hoechst33258 (Invitrogen) was added at a final concentration of 0.2 μg/mL to the cells 20 to 24 hours after initial cell transfection, and cultured in darkness at 37° C. for 15 min. Afterwards, the cells were washed once with a PBS solution, and then added with medium for culture for 20 to 24 h.
4. The cells were placed in a high-throughput confocal microscope (Molecular Devices ImageXpress), and four visual fields of the image of the cells were captured for each well, and images at three laser wavelengths were captured for each sample: bright field images of cells (FIG. 2(a) and FIG. 2(b)), Hoechst-staining images showing total nuclei (FIG. 2(c) and FIG. 2(d)) and GFP images showing success in transfection with the plasmid DNA and the expression of GFP (FIG. 2(e) and FIG. 2(f)). MetaXpress software was used to separately count the cells in the Hoechst-staining images and GFP images, and then the number of cells expressing GFP was divided by the total number of nuclei to give the absolute cell transfection efficiency. The absolute transfection efficiency was calculated as follows: […]

Structure (SMILES)	Absolute DNA transfection efficiency in HEK293 cells
CCCCCCCCCCCSc1nc(NCCCCCC)nc(NCCN2CCOCC2)n1 [S11N6 D2]	19.0%
CCCCCCCCCCCCNc1nc(NCCN2CCOCC2)nc(SCCCCCCCCCC)n1 [S10N12 D2]	3.7%
CCCCCCCCCCCCCCCSc1nc(NCCCCCC)nc(NCCN2CCCC2)n1 [S15N6 D3]	32.4%
CCCCCCCCCCCCCCCSc1nc(NCCN2CCN(C)CC2)nc(N(CCCCCCCCCCCC)CCCCCCCCCCCC)n1 [S15^2N12 D5]	0.7%
CCCCCCCCCSc1nc(NCCCCCCCC)nc(NCCN(CC)CC)n1 [S9N8 D7]	15.7%
CCCCCCCCCCCCCCCCCCNc1nc(NCCN(CC)CC)nc(SCCCCCCC)n1 [S7N18 D7]	3.9%
CCCCCCCCCCCCCCCSc1nc(NCCCCCC)nc(NCCCN(C)C)n1 [S15N6 D6]	34.2%
CCCCCCCCCCCCCNc1nc(NCCCN(C)C)nc(SCCCCCCCCCC)n1 [S10N13 D6]	7.9%
CCCCCCCCCCCCCCCSc1nc(NCCCCCC)nc(NCCCN2CCN(C)CC2)n1 [S15N6 D9]	15.4%
CCCCCCCCCCCCCCCCNc1nc(NCCN2CCCCC2)nc(SCCCCCCCC)n1 [S8N16 D4]	1.0%
CCCCCCCCCCCCCCCCCCSc1nc(NCCCCCCCCCCC)nc(NCCN2CCCC2)n1 [S18N11 D3]	4.2%
CCCCCCCCCCCNc1nc(NCCCN(C)C)nc(SCCCCCCCCCCC)n1 [S11N11 D6]	22.8%
CCCCCCCCCCCCCNc1nc(NCCCN(C)C)nc(SCCCCCCCCC)n1 [S9N13 D6]	31.8%
CCCCCCCCCCCCCCCNc1nc(NCC2CCN(C)CC2)nc(SCCCCCCCCCCCCCC)n1 [S14N15 D10]	0.7%
CCCCCCCCCCCNc1nc(NCCN(CC)CC)nc(SCCCCCCCCCCC)n1 [S11N11 D7]	6.8%
CCCCCCCCCCCCCCCNc1nc(NCCN2CCOCC2)nc(SCCCCCC)n1 [S6N15 D2]	2.0%
CCCCCCCCCSc1nc(NCCCCCCC)nc(NCCCN(C)C)n1 [S9N7 D6]	12.4%
CCCCCCCCCCCCCCCSc1nc(NCCN2CCCC2)nc(N(CCCCCCCCCCCC)CCCCCCCCCCCC)n1 [S15^2N12 D3]	0.1%
CCCCCCCCCCCCCCCCNc1nc(NCCN2CCOCC2)nc(SCCCCCCC)n1 [S7N16 D2]	12.9%
CCCCCCCCCCCCNc1nc(NCCCN(C)C)nc(SCCCCCCCC)n1 [S8N12 D6]	78.3%

Structure (SMILES)	Absolute DNA transfection efficiency in HEK293 cells
CCCCCCCCCCCCCCCCCCNc1nc(NCCN2CCCC2)nc(SCCCCCCCCCCC)n1 [S11N18 D3]	32.1%
CCCCCCCCCCCCCCCNc1nc(NCCN(C)C)nc(SCCCCCCC)n1 [S7N15 D1]	19.5%
CCCCCCCCCCCCCCCCSc1nc(NCCCCCCC)nc(NCCCN(C)C)n1 [S16N7 D6]	12.9%
CCCCCCCCCCSc1nc(NCCN(CC)CC)nc(SCCCCCC)n1 [S6S10 D7]	7.7%
CCCCCCCCCCCCSc1nc(NCCN2CCOCC2)nc(N(CCCCCCCCCCCC)CCCCCCCCCCCC)n1 [S12^2N12 D2]	0.0%
CCCCCCCCCCCCCNc1nc(NCCN2CCCC2)nc(SCCCCCC)n1 [S6N13 D3]	9.9%
CCCCCCCCCCCCCCCCSc1nc(NCCCCCCCC)nc(NCCN2CCCCC2)n1 [S16N8 D4]	8.4%
CCCCCCCCCCCCCCCCSc1nc(NCCCCCCCC)nc(NCCN(CC)CC)n1 [S16N8 D7]	4.6%
CCCCCCCCCCCCCCCCSc1nc(NCCCCCCCCCCCCC)nc(NCCCN(C)C)n1 [S16N13 D6]	1.2%
CCCCCCCCCCCCCCCNc1nc(NCCCN2CCN(C)CC2)nc(SCCCCCCCCCCCC)n1 [S12N15 D9]	0.2%
CCCCCCCCCCSc1nc(NCCCCCCCCC)nc(NCCN2CCCCC2)n1 [S10N9 D4]	2.7%
CCCCCCCCCCCCCCCCSc1nc(NCCCCCC)nc(NCCN2CCCCC2)n1 [S16N6 D4]	6.0%
CCCCCCCCCCCCCCCSc1nc(NCCCCCCC)nc(NCCN2CCCCC2)n1 [S15N7 D4]	8.1%
CCCCCCCCCCCCCCCNc1nc(NCCN(C)C)nc(SCCCCCC)n1 [S6N15 D1]	5.8%
CCCCCCCCCCCCCCCNc1nc(NCCCN2CCN(C)CC2)nc(SCCCCCCC)n1 [S7N15 D9]	17.6%
CCCCCCCCCCCCCCCSc1nc(NCCCCCCCCCCCC)nc(NCCN2CCCCC2)n1 [S15N12 D4]	0.1%
CCCCCCCCCSc1nc(NCCN(CC)CC)nc(SCCCCCCCC)n1 [S8S9 D7]	29.3%
CCCCCCCCCCCCCCCCNc1nc(NCC2CCN(C)CC2)nc(SCCCCCCCC)n1 [S8N16 D10]	13.4%
CCCCCCCCCCCCCCCSc1nc(NCCCCCCCCCCCCC)nc(NCCN(CC)CC)n1 [S15N13 D7]	5.5%
CCCCCCCCCCCCN(CCCCCCCCCCCC)c1nc(NCCN(C)C)nc(SCCCCCCCCC)n1 [S9^2N12 D1]	0.3%

Structure (SMILES)	Absolute DNA transfection efficiency in HEK293 cells
CCCCCCCCSc1nc(NCCCCCCC)nc(NCCCN2CCN(C)CC2)n1 [S8N7 D9]	3.6%
CCCCCCCCCCCCCCCCNc1nc(NCCN(C)C)nc(SCCCCCCCC)n1 [S8N16 D1]	7.1%
CCCCCCCCCCCCCNc1nc(NCCN2CCCCC2)nc(SCCCCCCCCCCC)n1 [S11N13 D4]	3.5%
CCCCCCCCCCSc1nc(NCCCN2CCOCC2)nc(SCCCCCCC)n1 [S7S10 D8]	18.0%
CCCCCCCCCCCCSc1nc(NCCCCCC)nc(NCCCN2CCOCC2)n1 [S12N6 D8]	0.1%
CCCCCCCCSc1nc(NCCCN2CCOCC2)nc(SCCCCCCCC)n1 [S8S8 D8]	13.8%
CCCCCCCCCCSc1nc(NCCCCCCCCC)nc(NCCCN2CCOCC2)n1 [S10N9 D8]	3.4%
CCCCCCCCCCCCCCCCCCSc1nc(NCCCCCCCCCCCCCCC)nc(NCCCN2CCN(C)CC2)n1 [S18N15 D9]	0.1%
CCCCCCCCCCCCCCSc1nc(NCCN(CC)CC)nc(N(CCCCCCCCCCCC)CCCCCCCCCCCC)n1 [S14^2N12 D7]	0.1%
CCCCCCCCCCCCCNc1nc(NCCN2CCN(C)CC2)nc(SCCCCCCCCCCC)n1 [S11N13 D5]	8.4%
CCCCCCCCCCCCCCSc1nc(NCCCCCCC)nc(NCCCN2CCOCC2)n1 [S14N7 D8]	13.3%
CCCCCCCSc1nc(NCCCCCC)nc(NCCN(CC)CC)n1 [S7N6 D7]	11.2%
CCCCCCCCCCCCCCCCSc1nc(NCCCCCCCCCCCCCCC)nc(NCCCN2CCN(C)CC2)n1 [S16N15 D9]	0.3%
CCCCCCCCCCCCCCCCSc1nc(NCCN2CCCC2)nc(SCCCCCC)n1 [S6S16 D3]	9.8%
CCCCCCCCCCCCCCCCCCNc1nc(NCCN2CCOCC2)nc(SCCCCCCCCCCCCCC)n1 [S14N18 D2]	0.0%
CCCCCCCCCCCCNc1nc(NCCCN2CCOCC2)nc(SCCCCCCCCC)n1 [S9N12 D8]	13.6%
CCCCCCCCCCCCCCCCCCSc1nc(NCCCCCCCCCCCCCCC)nc(NCC2CCN(C)CC2)n1 [S18N15 D10]	0.2%
CCCCCCCCCCCCCCCCCCSc1nc(NCCN(CC)CC)nc(SCCCCCC)n1 [S6S18 D7]	6.4%
CCCCCCCCCCCSc1nc(NCCN(C)C)nc(SCCCCCCC)n1 [S7S11 D1]	10.8%
